Patent US12612395B2, “Rocaglate derivatives and uses thereof” (TRUSTEES OF BOSTON UNIVERSITY, priority 2023, dated 2026)
“Also recorded” adds a separate entry of the source.

Key:
[1] = molecular target: eIF4A1:FAM-labeled poly r(AG)8 (Homo sapiens, UniProt P60842); assay: Fluorescence polarization (FP) RNA clamping assay, eIF4A1; type: binding; conditions: compound 10 μM, 1 mM ATP
Source text: (§1) Given these observations, the inventors next sought to interrogate the effects of compound (−)-20 in secondary assays for both eIF4A and DDX3 engagement. […] While inherent differences between the FP assay conditions (e.g. probe affinity, protein mobility in FP buffer) preclude direct comparison of absolute AmP values across the two different proteins, the inventors noted that relative anti-CSC potencies for these compounds ((−)-7>(−)-5≈(−)-20) were similar to their relative degrees of clamping for DDX3X and eIF4A1. To follow up on these findings, the inventors performed in vitro translation experiments using a bicistronic mRNA reporter construct FF-HCV-Ren, where translation of the firefly luciferase (FF) cistron is cap-dependent, while translation of the Renilla luciferase (HCV-Ren) cistron is driven off an HCV-IRES, rendering translation of this cistron cap-independent.
Fluorescence Polarization (FP) Assays: Recombinant DDX3X or eIF4A1 (1.5 μM) were incubated with 10 nM FAM-labelled RNA probe and test compounds for 10 min in FP buffer (14.4 mM HEPES-KOH (pH 8), 108 mM NaCl, 1 mM MgCl2, 14.4% glycerol, 0.1% DMSO, 2 mM DTT, 1 mM ATP) at room temperature in black, low-volume 384 well plates (Corning 3820). FP readings were performed using a Pherastar FS microplate reader (BMG Labtech). Compounds were tested at a final concentration of 10 μM.^S9 For ADP+Pi conditions, ATP was substituted with 1 mM ADP and 1 mM Na2HPO4. To assess potency of complex formation, proteins were titrated in the presence of 10 nM probe, 50 μM compounds and 1 mM ATP. Experiments were run in three replicates, with each replicate employing the same master mix of protein, probe and buffer split across the four test conditions (DMSO+three test compounds). […] Data was analyzed using GraphPad Prism 8.4.0, with a “[Agonist] vs. normalized response” nonlinear regression model used to determine the EC50 for stimulation of helicase-RNA probe binding in the presence of test compound.

[2] = molecular target: DDX3X:FAM-labeled poly r(AG)8 (Homo sapiens, UniProt O00571); assay: Fluorescence polarization (FP) RNA clamping assay, DDX3X; type: binding; conditions: 1 mM ATP; for stimulation of DDX3X:(AG)8 complex formation in protein titration, in words: 50 μM rocaglate; for stimulation of DDX3X binding to RNA (change in polarization), in words: compound 10 μM
Source text: as §1
Fluorescence Polarization (FP) Assays: Recombinant DDX3X or eIF4A1 (1.5 μM) were incubated with 10 nM FAM-labelled RNA probe and test compounds for 10 min in FP buffer (14.4 mM HEPES-KOH (pH 8), 108 mM NaCl, 1 mM MgCl2, 14.4% glycerol, 0.1% DMSO, 2 mM DTT, 1 mM ATP) at room temperature in black, low-volume 384 well plates (Corning 3820). FP readings were performed using a Pherastar FS microplate reader (BMG Labtech). Compounds were tested at a final concentration of 10 μM.^S9 For ADP+Pi conditions, ATP was substituted with 1 mM ADP and 1 mM Na2HPO4. To assess potency of complex formation, proteins were titrated in the presence of 10 nM probe, 50 μM compounds and 1 mM ATP. Experiments were run in three replicates, with each replicate employing the same master mix of protein, probe and buffer split across the four test conditions (DMSO+three test compounds). Within each replicate, data was normalized such that the highest response across the four tested conditions (as raw AmP counts) was used as 100% relative change in polarization, and the lowest response across the four tested conditions was used as 0% relative change in polarization. Data was analyzed using GraphPad Prism 8.4.0, with a “[Agonist] vs. normalized response” nonlinear regression model used to determine the EC50 for stimulation of helicase-RNA probe binding in the presence of test compound.

[3] = system: eIF4A paralogs (eIF4A1); assay: PISA assay in GBM0308 cell lysates, eIF4A; type: binding, human; conditions: GBM0308 lysate, compound 10 μM, AMP-PNP and (AG)8 RNA added
Source text: Derivatization-free target identification using a modified proteome integral solubility alteration (PISA) assay. The inventors next pursued proteome-wide target identification to better understand the target profiles of CSC-selective rocaglates. To enable cross-compound comparisons of target engagement, the inventors opted to use the Proteome Integral Solubility Alteration (PISA) assay,^29 a derivative of the mass spectrometry-based Cellular Thermal Shift Assay (MS-CETSA). In MS-CETSA,^30,31 target engagement is inferred through proteome-wide analysis of compound-induced changes to protein thermal stability; proteins with a shift in their half-maximal thermal denaturation temperature upon compound treatment are flagged as potential targets. The PISA assay obviates the need for MS-CETSA-derived thermal denaturation curves through curve integration by pooling of individual temperature points into a single “integral” sample for each treatment condition, thereby increasing throughput (FIG. 9). In contrast to MS-CETSA (which relies on curve comparisons), PISA determinations are performed by simply comparing soluble protein abundance levels between compound- and DMSO-treated samples. Importantly, protein fold-change measurements in PISA experiments generally scale with the thermal shift derived from CETSA experiments, and the magnitude of a thermal shift can inform on relative affinity between compounds and individual targets.^30,32-25 Maximal stability changes are protein-specific,^36 however, precluding estimations of preference for one target over another. Thus, PISA allows for simultaneous target profiling and comparisons of binding affinity between different compounds within a given target.
Of note, we also detected stabilization of DDX3Y, a paralog which shares >90% sequence similarity with DDX3X.
PISA assay in GBM0308 cell lysates: The PISA assay was performed in lysates as described by Gaetani and coworkers^S2 with slight modification. Pelleted GBM0308 cells were resuspended in ice-cold lysis buffer (1×PBS pH 7.4, 2 mM MgCl2, 0.5 mM AMP-PNP, 1 μM (AG)8 RNA, HALT protease inhibitor cocktail EDTA-free) and subjected to three freeze-thaw cycles with liquid nitrogen to extract lysate proteins. Thawing was performed at room temperature until ˜80% thawed, then completed on ice. Lysate was clarified by centrifugation for 10 minutes at 20,000 RCF and 4° C., transferred to a fresh Eppendorf tube, then centrifuged again for 10 minutes at 20,000 RCF and 4° C. to ensure removal of debris. Lysate concentration was determined using a Pierce BCA Protein Assay Kit and adjusted to 2.0 mg/mL in lysis buffer. Lysate was mixed 1:1 with a 2× solution of test compound or DMSO in lysis buffer, gently aspirated to ensure proper mixing, and incubated at room temperature for 10 minutes. […]

DDX3X:FAM-labeled poly r(AG)8, sequence (O00571 whole entry, species assumed): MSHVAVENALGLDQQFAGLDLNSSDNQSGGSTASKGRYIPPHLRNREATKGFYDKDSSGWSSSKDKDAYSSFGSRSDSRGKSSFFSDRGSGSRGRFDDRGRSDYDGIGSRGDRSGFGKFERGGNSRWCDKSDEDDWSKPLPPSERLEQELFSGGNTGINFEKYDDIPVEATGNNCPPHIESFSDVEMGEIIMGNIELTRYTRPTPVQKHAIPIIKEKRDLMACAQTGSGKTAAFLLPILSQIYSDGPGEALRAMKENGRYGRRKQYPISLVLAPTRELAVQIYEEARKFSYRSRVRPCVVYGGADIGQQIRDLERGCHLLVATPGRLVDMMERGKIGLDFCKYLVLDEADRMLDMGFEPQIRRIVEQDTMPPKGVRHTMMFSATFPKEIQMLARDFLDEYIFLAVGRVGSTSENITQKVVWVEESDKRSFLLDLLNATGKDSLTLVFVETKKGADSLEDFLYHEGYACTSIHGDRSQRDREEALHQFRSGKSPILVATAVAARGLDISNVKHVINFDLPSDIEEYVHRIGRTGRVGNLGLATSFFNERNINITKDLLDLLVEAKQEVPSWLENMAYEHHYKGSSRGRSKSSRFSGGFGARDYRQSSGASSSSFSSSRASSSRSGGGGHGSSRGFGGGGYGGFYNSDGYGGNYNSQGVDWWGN
eIF4A1:FAM-labeled poly r(AG)8, sequence (P60842 whole entry, species assumed): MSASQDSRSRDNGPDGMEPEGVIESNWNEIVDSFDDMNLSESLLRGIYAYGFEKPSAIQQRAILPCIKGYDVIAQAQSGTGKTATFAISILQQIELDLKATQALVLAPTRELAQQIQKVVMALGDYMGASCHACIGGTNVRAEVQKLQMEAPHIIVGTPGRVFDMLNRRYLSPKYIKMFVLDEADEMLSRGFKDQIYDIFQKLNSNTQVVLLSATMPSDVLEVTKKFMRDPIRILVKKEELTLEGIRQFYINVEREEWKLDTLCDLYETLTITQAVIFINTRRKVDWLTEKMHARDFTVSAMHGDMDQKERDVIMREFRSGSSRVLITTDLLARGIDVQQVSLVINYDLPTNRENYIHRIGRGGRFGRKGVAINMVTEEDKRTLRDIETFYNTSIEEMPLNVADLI

Structure (SMILES) | stimulation of eIF4A1 binding to RNA (change in polarization), in words [1] | stimulation of DDX3X:(AG)8 complex formation in protein titration, in words [2] | thermal stabilization of eIF4A paralogs (PISA), in words [3] | stimulation of DDX3X binding to RNA (change in polarization), in words [2]
CONC(=O)[C@H]1[C@@H](O)[C@@]2(O)c3c(OC)cc(OC)cc3O[C@@]2(c2ccc(OC)cc2)[C@@H]1c1ccccc1 [(−)-5, CR-1-31b, reference compound] | strongly stimulated | significantly less efficacious | stabilization | 
CONC(=O)[C@H]1[C@@H](O)[C@@]2(O)c3c(OC)cc(OC)cc3O[C@@]2(c2ccc(Br)cc2)[C@@H]1c1ccccc1 [(−)-7, SDS-1-021] | strongly stimulated; also recorded: strongest clamping | clearly favored; also recorded: significant enhancement of binding stimulation | stabilized | stimulated RNA binding to a greater extent
COc1cc(OC)c2c(c1)O[C@@]1(c3ccc(Br)cc3)[C@H](c3ccccc3)[C@@H](C(=O)NS(=O)(=O)N(C)C)[C@@H](O)[C@@]21O [(−)-20, (1R,2R,3S,3aR,8bS)-3a-(4-bromophenyl)-N—(N,N-dimethylsulfamoyl)-1,8b-dihydroxy-6,8-dimethoxy-3-phenyl-2,3,3a,8b-tetrahydro-1H-cyclopenta[b]benzofuran-2-carboxamide] | strongly stimulated | significant enhancement of binding stimulation | stabilized | stimulated RNA binding to a greater extent
